Data reported in US20260027163A1, “GUT MICROBIOME BACTERIA AND ENZYMES THAT METABOLIZE DIETARY AND MEDICINAL PLANT SMALL MOLECULES TO AFFECT GUT MICROBIOME” (The Children's Medical Center Corporation, priority 2022, published 2026).

Tests used:
DSS-induced colitis = assay: DSS-induced colitis, bioactivation of salicin by Bacteroides uniformis; assay type: in vivo; conditions: salicin bioactivated to saligenin by Bacteroides uniformis; FIGS. 7A-7B
Description: (§1) The present disclosure identifies and characterizes a novel mechanism by which the gut microbiome transforms abundant and chemically diverse small molecule components of human diet to drive pro-homeostatic programs in the intestine.

[1] = test system: macrophages stimulated with pro-inflammatory LP5; assay: Inflammatory cytokine production by stimulated macrophages after saligenin pre-treatment; assay type: cell-based; conditions: in vitro, FIGS. 1A-1B
AhR [2] = target: T1, AhR (Mus musculus, UniProt P30561); assay: In vivo AhR activation in colitis, reversal with competitive AhR antagonist; conditions: FIG. 9
T1 construct: endogenous in cells
T1 sequence (P30561 10-848): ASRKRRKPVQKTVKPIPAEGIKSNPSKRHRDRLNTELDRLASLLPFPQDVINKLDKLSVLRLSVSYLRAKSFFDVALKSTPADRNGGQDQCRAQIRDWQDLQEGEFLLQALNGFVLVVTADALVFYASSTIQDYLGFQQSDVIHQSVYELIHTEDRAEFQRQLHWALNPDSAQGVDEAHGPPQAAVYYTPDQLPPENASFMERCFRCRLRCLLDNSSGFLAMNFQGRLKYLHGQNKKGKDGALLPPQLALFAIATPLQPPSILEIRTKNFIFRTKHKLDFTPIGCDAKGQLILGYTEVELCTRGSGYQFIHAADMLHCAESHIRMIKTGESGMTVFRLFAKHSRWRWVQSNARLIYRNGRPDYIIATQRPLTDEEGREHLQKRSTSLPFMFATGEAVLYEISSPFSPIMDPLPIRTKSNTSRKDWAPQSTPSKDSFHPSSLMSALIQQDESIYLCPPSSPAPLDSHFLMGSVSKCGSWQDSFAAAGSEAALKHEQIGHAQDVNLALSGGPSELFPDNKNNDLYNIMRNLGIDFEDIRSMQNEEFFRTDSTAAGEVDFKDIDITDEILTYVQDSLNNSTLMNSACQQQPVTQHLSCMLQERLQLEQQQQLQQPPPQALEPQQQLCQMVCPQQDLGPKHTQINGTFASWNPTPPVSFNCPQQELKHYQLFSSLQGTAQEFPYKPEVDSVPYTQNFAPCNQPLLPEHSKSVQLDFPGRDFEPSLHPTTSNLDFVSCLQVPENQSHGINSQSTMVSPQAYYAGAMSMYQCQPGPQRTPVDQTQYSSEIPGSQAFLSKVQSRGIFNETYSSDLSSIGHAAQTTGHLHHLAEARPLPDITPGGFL
Description: as §1

AhR [3] = target: T2, AhR (Homo sapiens, UniProt P35869); assay: Activation of xenobiotic sensor AhR; assay type: cell-based; conditions: FIG. 4
T2 sequence (P35869 11-848): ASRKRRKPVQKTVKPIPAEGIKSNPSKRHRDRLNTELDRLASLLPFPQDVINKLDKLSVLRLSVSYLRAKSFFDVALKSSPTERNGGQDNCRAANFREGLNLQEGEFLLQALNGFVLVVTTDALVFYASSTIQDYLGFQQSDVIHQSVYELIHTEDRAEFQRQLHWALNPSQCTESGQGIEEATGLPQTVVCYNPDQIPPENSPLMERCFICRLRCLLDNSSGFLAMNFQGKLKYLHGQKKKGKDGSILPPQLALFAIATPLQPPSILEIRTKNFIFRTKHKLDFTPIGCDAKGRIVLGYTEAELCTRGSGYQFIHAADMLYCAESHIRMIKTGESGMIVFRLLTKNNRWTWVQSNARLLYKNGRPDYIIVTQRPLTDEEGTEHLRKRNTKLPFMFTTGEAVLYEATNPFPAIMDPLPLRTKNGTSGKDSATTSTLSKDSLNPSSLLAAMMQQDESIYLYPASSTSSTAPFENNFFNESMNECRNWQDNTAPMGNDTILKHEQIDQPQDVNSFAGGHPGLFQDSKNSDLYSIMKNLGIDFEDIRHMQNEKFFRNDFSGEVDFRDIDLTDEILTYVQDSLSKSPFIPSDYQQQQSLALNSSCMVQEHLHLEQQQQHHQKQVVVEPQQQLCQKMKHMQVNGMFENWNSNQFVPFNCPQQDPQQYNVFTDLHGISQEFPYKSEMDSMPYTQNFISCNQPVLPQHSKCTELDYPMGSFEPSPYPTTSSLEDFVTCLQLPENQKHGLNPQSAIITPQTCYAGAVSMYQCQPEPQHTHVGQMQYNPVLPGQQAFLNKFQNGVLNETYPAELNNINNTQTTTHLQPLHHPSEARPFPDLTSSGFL
Description: Saligenin […] AhR, a xenobiotic immune sensor that drives pro-homeostatic processes in gut epithelia and immune cells.

[4] = test system: DSS-induced intestinal inflammation; assay: DSS-induced colitis, pure compound delivered orally; assay type: in vivo, mice
Description: as §1

| SMILES | protection against DSS-induced colitis (DSS-induced colitis) | inflammatory cytokine production [1] | AhR activation in vivo, reversibility by antagonist (AhR [2]) | AhR activation (AhR [3]) | Th1-effector cells ([4]; DSS exposure, FIGS. 6A-6B) | colonic IFN-gamma ([4]; DSS exposure, FIGS. 11A-11B) | protection against DSS-induced intestinal inflammation ([4]; pure compound delivered orally daily for 7 days, mice, FIGS. 8A-8B) |
| --- | --- | --- | --- | --- | --- | --- | --- |
| OCc1ccccc1O[C@@H]1O[C@H](CO)[C@@H](O)[C@H](O)[C@H]1O [salicin] | protected against DSS-induced colitis |  |  |  |  |  |  |
| OCc1ccccc1O [saligenin] |  | attenuated inflammatory cytokine production | can be reversed with a competitive AhR antagonist | activated | decrease in Th1-effector cells | decrease in colonic IFN-gamma | protected against DSS-induced intestinal inflammation |
